The subject of data set [1] is spontaneously hypertensive rats (SP-SHR). Nature of the data set: Blood pressure after topical application in spontaneously hypertensive rats. The class given is in vivo, rat. The source says: To evaluate the ability of the amphiphilic peptide derivatives to exert systemic biological action after topical application, spontaneously hypertensive rats (SP-SHR) and Ang-(1-7) derivatives, as prepared in Example 1 were used.
SP-SHR rats (4-5 months-old with about 270 g body weight) were instrumented for acute blood pressure measurements using tribromoethanol anesthesia. Just after the arterial catheter implantation, the interscapular region was shaved for topical application of the formulation. Blood pressure (BP) was recorded 24 h after surgery (base line BP=173.0±6.2). BP was recorded in unanesthesized animals under resting conditions for 1 h. After that, a solution of Ang-(1-7) derivatives was applied topically (20 μl at 1 mg/ml) and BP was continuously recorded for 6 h.

For data set [2] the following is noted: in vivo; cited from earlier work.
The test system of another data set is dogs. The settings on record: subcutaneous, 10 mg/(kg day) for 28 days; cited from earlier work.
A further data set concerns rats. To be noted: subcutaneous, 10 mg/(kg day) for 28 days; cited from earlier work.
For data set [3] the following is noted: human, in vivo; cited from earlier work.
Where [4] appears, read: topical application 20 μl at 1 mg/ml.

Like-named read-outs stand apart in the source and are kept apart here. No end group written: not given here.

With “Ang-(1-7) ester derivatives: Product of Example 1: Ang-(1-7) esterified with 1-octanol, mainly diester at C-terminal and Asp carboxyl groups, plus monoesters (DRVYIHP; not fully specified (residue 1, C-terminus); also: mixture: mainly diester at C-terminal and Asp carboxyl groups, plus monoesters; UniProt P01019 25-31, looked up)”, in data set [1] (setting [4]), the “duration of BP decrease” value is given as “up to 6 h” and the “start of BP decrease after application” value amounted to 90 min. Moreover, in data set [1] (topical application 20 μl at 1 mg/ml, BP recorded for 6 h), the “decrease of BP” value is “up to 25 mmHg”.
As to “Asp^1-Arg^2-Val^3-Tyr^4-Ile^5-His^6-Pro^7 [Ang-(1-7)]”, the figures for the plasma half-life result in data set [2] and in data set [3] were “about 10 min” and about 30 min, respectively. In addition, in data set [1] (topical application), the “change in BP” value is listed as “did not cause significant change in BP”. The detectable toxicities result in the data set on dogs and in the data set on rats was “did not lead to any detectable toxicities” each time.

Values taken from patent US20160168224A1, “PROCESS FOR PREPARING AMPHIPHILIC PEPTIDE DERIVATIVES” (UNIVERSIDADE FEDERAL DE MINAS GERAIS - UFMG, priority 2013, published 2016).
